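Tested at 5 concentrations; 48 h exposure; 96-well plates; endpoints linearly interpolated, else capped at highest concentration. Here, GI50 denotes the concentration required for 50% inhibition of growth. TGI: concentration producing complete growth inhibition.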
How the values were obtained:
Assay in all cases: DTP human tumour cell line panel, 48 h
786-0 renal = system: 786-0 renal
A498 renal = system: A498 renal
A549 NSCLC = system: A549 NSCLC
ACHN renal = system: ACHN renal
BT-549 breast = system: BT-549 breast
CCRF-CEM leukemia = system: CCRF-CEM leukemia
DU-145 prostate = system: DU-145 prostate
EKVX NSCLC = system: EKVX NSCLC
HCC-2998 colon = system: HCC-2998 colon
HCT-116 colon = system: HCT-116 colon
HCT-15 colon = system: HCT-15 colon
HL-60(TB) leukemia = system: HL-60(TB) leukemia
HOP-62 NSCLC = system: HOP-62 NSCLC
HOP-92 NSCLC = system: HOP-92 NSCLC
HS 578T breast = system: HS 578T breast
HT29 colon = system: HT29 colon
IGROV1 ovarian = system: IGROV1 ovarian
KM12 colon = system: KM12 colon
LOX IMVI melanoma = system: LOX IMVI melanoma
MCF7 breast = system: MCF7 breast
MDA-MB-231 breast = system: MDA-MB-231 breast
MOLT-4 leukemia = system: MOLT-4 leukemia
NCI-H226 lung = system: NCI-H226 lung
NCI-H23 lung = system: NCI-H23 lung
NCI-H460 lung = system: NCI-H460 lung
NCI-H522 lung = system: NCI-H522 lung
NCI/ADR-RES ovarian = system: NCI/ADR-RES ovarian
OVCAR-3 ovarian = system: OVCAR-3 ovarian
OVCAR-4 ovarian = system: OVCAR-4 ovarian
OVCAR-5 ovarian = system: OVCAR-5 ovarian
OVCAR-8 ovarian = system: OVCAR-8 ovarian
PC-3 prostate = system: PC-3 prostate
SF-268 CNS = system: SF-268 CNS
SF-295 CNS = system: SF-295 CNS
SF-539 CNS = system: SF-539 CNS
SK-MEL-2 melanoma = system: SK-MEL-2 melanoma
SK-MEL-28 melanoma = system: SK-MEL-28 melanoma
SK-MEL-5 melanoma = system: SK-MEL-5 melanoma
SK-OV-3 ovarian = system: SK-OV-3 ovarian
SN12C renal = system: SN12C renal
SNB-19 CNS = system: SNB-19 CNS
SR leukemia = system: SR leukemia
SW-620 colon = system: SW-620 colon
T-47D breast = system: T-47D breast
TK-10 renal = system: TK-10 renal
U251 CNS = system: U251 CNS
UACC-62 melanoma = system: UACC-62 melanoma
UO-31 renal = system: UO-31 renal

With `CCOC(=O)c1cc(C(=O)c2cc(OC)c(OC)c(OC)c2)n2nc(C)ccc12` the GI50 (786-0 renal) was 335 nM, the TGI (786-0 renal) was > 100000 nM and the GI50 (A498 renal) was 76.2 nM. The TGI (A498 renal) was 931 nM, the GI50 (A549 NSCLC) was 223 nM and the TGI (A549 NSCLC) was > 100000 nM. The GI50 (ACHN renal) was 524 nM, the TGI (ACHN renal) was > 100000 nM and the GI50 (BT-549 breast) was 878 nM. The TGI (BT-549 breast) was > 100000 nM, the GI50 (CCRF-CEM leukemia) was 212 nM and the TGI (CCRF-CEM leukemia) was > 100000 nM. The GI50 (DU-145 prostate) was 391 nM, the TGI (DU-145 prostate) was > 100000 nM and the GI50 (EKVX NSCLC) was 479 nM. The TGI (EKVX NSCLC) was > 100000 nM, the GI50 (HCC-2998 colon) was 493 nM and the TGI (HCC-2998 colon) was > 100000 nM. The GI50 (HCT-116 colon) was 164 nM, the TGI (HCT-116 colon) was > 100000 nM and the GI50 (HCT-15 colon) was 84.4 nM. For the same compound, the TGI (HCT-15 colon) was > 100000 nM, the GI50 (HL-60(TB) leukemia) was 160 nM and the TGI (HL-60(TB) leukemia) was 588 nM. The GI50 (HOP-62 NSCLC) was 398 nM, the TGI (HOP-62 NSCLC) was > 100000 nM and the GI50 (HOP-92 NSCLC) was 3520 nM. For the same compound, the TGI (HOP-92 NSCLC) was > 100000 nM, the GI50 (HS 578T breast) was 190 nM and the TGI (HS 578T breast) was > 100000 nM. The GI50 (HT29 colon) was 133 nM, the TGI (HT29 colon) was > 100000 nM and the GI50 (IGROV1 ovarian) was 379 nM. The TGI (IGROV1 ovarian) was > 100000 nM, the GI50 (KM12 colon) was 57.7 nM and the TGI (KM12 colon) was > 100000 nM. The GI50 (LOX IMVI melanoma) was 498 nM, the TGI (LOX IMVI melanoma) was > 100000 nM and the GI50 (MCF7 breast) was 48.1 nM. The TGI (MCF7 breast) was > 100000 nM, the GI50 (MDA-MB-231 breast) was 524 nM and the TGI (MDA-MB-231 breast) was > 100000 nM. For the same compound, the GI50 (MOLT-4 leukemia) was 396 nM, the TGI (MOLT-4 leukemia) was > 100000 nM and the GI50 (NCI-H226 lung) was 45000 nM. The TGI (NCI-H226 lung) was > 100000 nM, the GI50 (NCI-H23 lung) was 418 nM and the TGI (NCI-H23 lung) was > 100000 nM. For the same compound, the GI50 (NCI-H460 lung) was 133 nM, the TGI (NCI-H460 lung) was > 100000 nM and the GI50 (NCI-H522 lung) was 171 nM. The TGI (NCI-H522 lung) was > 100000 nM, the GI50 (NCI/ADR-RES ovarian) was 123 nM and the TGI (NCI/ADR-RES ovarian) was 1930 nM. For the same compound, the GI50 (OVCAR-3 ovarian) was 64.8 nM, the TGI (OVCAR-3 ovarian) was 1270 nM and the GI50 (OVCAR-4 ovarian) was 1720 nM. For the same compound, the TGI (OVCAR-4 ovarian) was > 100000 nM, the GI50 (OVCAR-5 ovarian) was 472 nM and the TGI (OVCAR-5 ovarian) was > 100000 nM. The GI50 (OVCAR-8 ovarian) was 518 nM, the TGI (OVCAR-8 ovarian) was > 100000 nM and the GI50 (PC-3 prostate) was 93.9 nM. For the same compound, the TGI (PC-3 prostate) was > 100000 nM, the GI50 (SF-268 CNS) was 550 nM and the TGI (SF-268 CNS) was > 100000 nM. The GI50 (SF-295 CNS) was 65.7 nM, the TGI (SF-295 CNS) was > 100000 nM and the GI50 (SF-539 CNS) was 130 nM. The TGI (SF-539 CNS) was 771 nM, the GI50 (SK-MEL-2 melanoma) was 495 nM and the TGI (SK-MEL-2 melanoma) was > 100000 nM. For the same compound, the GI50 (SK-MEL-28 melanoma) was 12000 nM, the TGI (SK-MEL-28 melanoma) was > 100000 nM and the GI50 (SK-MEL-5 melanoma) was 58.5 nM. The TGI (SK-MEL-5 melanoma) was 3320 nM, the GI50 (SK-OV-3 ovarian) was 546 nM and the TGI (SK-OV-3 ovarian) was > 100000 nM. For the same compound, the GI50 (SN12C renal) was 665 nM, the TGI (SN12C renal) was > 100000 nM and the GI50 (SNB-19 CNS) was 420 nM. The TGI (SNB-19 CNS) was > 100000 nM, the GI50 (SR leukemia) was 48.1 nM and the TGI (SR leukemia) was > 100000 nM. The GI50 (SW-620 colon) was 68.7 nM, the TGI (SW-620 colon) was > 100000 nM and the GI50 (T-47D breast) was > 100000 nM. The TGI (T-47D breast) was > 100000 nM, the GI50 (TK-10 renal) was > 100000 nM and the TGI (TK-10 renal) was > 100000 nM. The GI50 (U251 CNS) was 331 nM, the TGI (U251 CNS) was > 100000 nM and the GI50 (UACC-62 melanoma) was 61.5 nM. The TGI (UACC-62 melanoma) was > 100000 nM, the GI50 (UO-31 renal) was 452 nM and the TGI (UO-31 renal) was > 100000 nM.
